According to PMC3407795 (EJNMMI Research, 2012):
Read-outs that look alike come from different tables or passages of the source.

Experiments:
[1] = Metabolism in blood (in vivo stability); set-up: species or system mouse; conditions: healthy male Swiss albino mice, blood collected 5 min after iv injection (3 nmol), RP-HPLC radioanalysis
Protocol: The animals were kept for 5 min in cages with free access to water. They were sacrificed by cardiac puncture under ether anesthesia, and blood was withdrawn with a syringe and immediately placed in a pre-chilled EDTA-containing polypropylene vial on ice. Blood samples were centrifuged at 2,000 × g at 4 °C for 10 min.

[2] = Biodistribution in healthy mice; assay type: in vivo; conditions: male, mouse, total radioactivity, healthy Swiss albino mice
Protocol: In the in vivo receptor blockade animal group, excess Tate (50 nmol) was administered intravenously (iv) together with the radioligand. Animals were sacrificed in groups of four at 4- and 24-h time points post injection (pi). […] Tissue distribution data were calculated as percent injected dose per gram (%ID/g) applying a suitable algorithm.
(§1) The in vivo data presented as mean %ID/g ± SD (n ≥ 4) were statistically analyzed with Student’s t test (Prism^TM 2.01, GraphPad Software, San Diego, CA, USA). Analyses were 2-tailed, and a P value < 0.05 was considered statistically significant.

[3] = Biodistribution in AR4-2J tumor-bearing mice; assay type: in vivo; conditions: female, mouse, iv, total radioactivity, AR4-2J tumor SCID mice, mean ± SD; for tissue uptake at 1 h: 1 h pi
Protocol: In the flanks of each of female SCID mice, inocula (150 μL) containing a suspension of 0.8 × 10^7 AR4-2J cells in PBS buffer were subcutaneously injected. […] Mice were sacrificed at 4 h pi, and biodistribution was studied as described above.
as §1

[4] = Biodistribution in HEK293-hsst2A+ tumor-bearing mice; assay type: in vivo; conditions: mouse, iv, total radioactivity, HEK293-hsst2A+ tumor SCID mice, mean ± SD
Protocol: (§2) In the flanks of SCID mice, inocula (150 μL) containing a suspension of 1.8 × 10^7 HEK293-hsst2A^+, -hsst3^+ or -hsst5^+ cells in PBS were subcutaneously injected. Tumors of substantial size were grown within 3 weeks, whereupon biodistribution experiments were performed.
as §1

[5] = Biodistribution in HEK293-hsst3+ tumor-bearing mice; assay type: in vivo; conditions: mouse, iv, total radioactivity, HEK293-hsst3+ tumor SCID mice, 4 h pi, mean ± SD
Protocol: as §2, §1

[6] = Biodistribution in HEK293-hsst5+ tumor-bearing mice; assay type: in vivo; conditions: mouse, iv, total radioactivity, HEK293-hsst5+ tumor SCID mice, 4 h pi, mean ± SD
Protocol: as §2, §1

[7] = Biodistribution in AR4-2J tumor-bearing mice; assay type: in vivo; conditions: female, mouse, iv, total radioactivity, AR4-2J tumor SCID mice, 1 h pi, mean ± SD
[8] = blood, 10 pmol, 4 h pi, read-out: Blood uptake
[9] = femur, 10 pmol, 4 h pi, read-out: Femur uptake
[10] = heart, 10 pmol, read-out: Heart uptake
[11] = heart, 10 pmol, 4 h pi, read-out: Heart uptake
[12] = intestines, 10 pmol total peptide, read-out: Intestines uptake
[13] = intestines, 10 pmol total peptide, 4 h pi, read-out: Intestines uptake
[14] = 10 pmol, 4 h pi, read-out: Tumor uptake
[15] = kidneys, 10 pmol, read-out: Kidneys uptake
[16] = kidneys, 10 pmol, 4 h pi, read-out: Kidneys uptake
[17] = liver, 10 pmol, read-out: Liver uptake
[18] = liver, 10 pmol, 4 h pi, read-out: Liver uptake
[19] = lung, 10 pmol total peptide, read-out: Lung uptake
[20] = lung, 10 pmol total peptide, 4 h pi, read-out: Lung uptake
[21] = muscle, 10 pmol total peptide, read-out: Muscle uptake
[22] = muscle, 10 pmol total peptide, 4 h pi, read-out: Muscle uptake
[23] = pancreas, 10 pmol, read-out: Pancreas uptake
[24] = pancreas, 10 pmol, 4 h pi, read-out: Pancreas uptake
[25] = spleen, 10 pmol total peptide, 4 h pi, read-out: Spleen uptake
[26] = stomach, 10 pmol, read-out: Stomach uptake
[27] = stomach, 10 pmol, 4 h pi, read-out: Stomach uptake
[28] = blood, 10 pmol, read-out: Blood uptake
[29] = femur, 10 pmol, read-out: Femur uptake
[30] = 10 pmol, read-out: Tumor uptake
[31] = spleen, 10 pmol total peptide, read-out: Spleen uptake

intact radiopeptide detected in blood [1]: 6.5%
tissue uptake at 4 h ([2]; kidney, 10 pmol total peptide, 4 h pi, iv 10 pmol, read-out: Kidney uptake): 22.9 %ID/g
tissue uptake at 24 h ([2]; kidney, 10 pmol total peptide, 24 h pi, iv 10 pmol): 7.6 %ID/g
tissue uptake at 4 h ([2]; pancreas, 10 pmol total peptide, 4 h pi, iv 10 pmol, read-out: Pancreas uptake): 2.9 %ID/g
tissue uptake at 4 h ([2]; pancreas, iv, 4 h pi + excess Tate (50 nmol), read-out: Pancreas uptake, sst2 blockade): 0.17 %ID/g
tissue uptake at 4 h [3, 8]: 0.19 ± 0.02 %ID/g
tissue uptake at 4 h ([3]; blood, 4 h pi + co-injection of 50 nmol Tate, read-out: Blood uptake, blocked): 0.26 ± 0.03 %ID/g
tissue uptake at 4 h [3, 9]: 0.4 ± 0.24 %ID/g
tissue uptake at 4 h ([3]; femur, 4 h pi + co-injection of 50 nmol Tate, read-out: Femur uptake, blocked): 0.19 ± 0.02 %ID/g
tissue uptake at 1 h [3, 10]: 0.67 ± 0.12 %ID/g
tissue uptake at 4 h [3, 11]: 0.18 ± 0.05 %ID/g
tissue uptake at 4 h ([3]; heart, 4 h pi + co-injection of 50 nmol Tate, read-out: Heart uptake, blocked): 0.17 ± 0.04 %ID/g
tissue uptake at 1 h [3, 12]: 1.98 ± 0.29 %ID/g
tissue uptake at 4 h [3, 13]: 1.92 ± 0.25 %ID/g
tissue uptake at 4 h ([3]; intestines, 4 h pi + co-injection of 50 nmol Tate, read-out: Intestines uptake, blocked): 0.77 ± 0.58 %ID/g
tissue uptake at 4 h [3, 14]: 1.82 ± 0.36 %ID/g
tissue uptake at 4 h ([3]; 4 h pi + co-injection of 50 nmol Tate, read-out: Tumor uptake, blocked): 0.21 ± 0.17 %ID/g
tissue uptake at 1 h [3, 15]: 23.8 ± 4.28 %ID/g
tissue uptake at 4 h [3, 16]: 21.1 ± 4.43 %ID/g
tissue uptake at 4 h ([3]; kidneys, 4 h pi + co-injection of 50 nmol Tate, read-out: Kidneys uptake, blocked): 24.4 ± 9.15 %ID/g
tissue uptake at 1 h [3, 17]: 1.27 ± 0.09 %ID/g
tissue uptake at 4 h [3, 18]: 0.95 ± 0.21 %ID/g
tissue uptake at 4 h ([3]; liver, 4 h pi + co-injection of 50 nmol Tate, read-out: Liver uptake, blocked): 1.02 ± 0.11 %ID/g
tissue uptake at 1 h [3, 19]: 2.05 ± 0.52 %ID/g
tissue uptake at 4 h [3, 20]: 1.43 ± 1.36 %ID/g
tissue uptake at 4 h ([3]; lung, 4 h pi + co-injection of 50 nmol Tate, read-out: Lung uptake, blocked): 3.3 ± 4.93 %ID/g
tissue uptake at 1 h [3, 21]: 0.22 ± 0.02 %ID/g
tissue uptake at 4 h [3, 22]: 0.06 ± 0.01 %ID/g
tissue uptake at 4 h ([3]; muscle, 4 h pi + co-injection of 50 nmol Tate, read-out: Muscle uptake, blocked): 0.07 ± 0.01 %ID/g
tissue uptake at 1 h [3, 23]: 7.35 ± 0.74 %ID/g
tissue uptake at 4 h [3, 24]: 5.13 ± 0.75 %ID/g
tissue uptake at 4 h ([3]; pancreas, 4 h pi + co-injection of 50 nmol Tate, read-out: Pancreas uptake, blocked): 0.15 ± 0.05 %ID/g
tissue uptake at 4 h [3, 25]: 1.1 ± 0.63 %ID/g
tissue uptake at 4 h ([3]; spleen, 4 h pi + co-injection of 50 nmol Tate, read-out: Spleen uptake, blocked): 0.61 ± 0.18 %ID/g
tissue uptake at 1 h [3, 26]: 3.23 ± 0.77 %ID/g
tissue uptake at 4 h [3, 27]: 1.81 ± 0.47 %ID/g
tissue uptake at 4 h ([3]; stomach, 4 h pi + co-injection of 50 nmol Tate, read-out: Stomach uptake, blocked): 0.18 ± 0.07 %ID/g
tissue uptake at 4 h [4, 8]: 0.23 ± 0.07 %ID/g
tissue uptake at 4 h ([4]; blood, 4 h pi + co-injection of 35 nmol DP2, read-out: Blood uptake, blocked): 0.66 ± 0.35 %ID/g
tissue uptake at 4 h [4, 9]: 0.24 ± 0.09 %ID/g
tissue uptake at 4 h ([4]; femur, 4 h pi + co-injection of 35 nmol DP2, read-out: Femur uptake, blocked): 0.21 ± 0.11 %ID/g
tissue uptake at 4 h [4, 11]: 0.22 ± 0.05 %ID/g
tissue uptake at 4 h ([4]; heart, 4 h pi + co-injection of 35 nmol DP2, read-out: Heart uptake, blocked): 0.38 ± 0.1 %ID/g
tissue uptake at 4 h [4, 13]: 2 ± 0.48 %ID/g
tissue uptake at 4 h ([4]; intestines, 4 h pi + co-injection of 35 nmol DP2, read-out: Intestines uptake, blocked): 1.74 ± 1.02 %ID/g
tissue uptake at 4 h [4, 14]: 1.49 ± 0.2 %ID/g
tissue uptake at 4 h ([4]; 4 h pi + co-injection of 35 nmol DP2, read-out: Tumor uptake, blocked): 0.27 ± 0.2 %ID/g
tissue uptake at 4 h [4, 16]: 23.2 ± 7.04 %ID/g
tissue uptake at 4 h ([4]; kidneys, 4 h pi + co-injection of 35 nmol DP2, read-out: Kidneys uptake, blocked): 25.5 ± 3.7 %ID/g
tissue uptake at 4 h [4, 18]: 1.31 ± 0.36 %ID/g
tissue uptake at 4 h ([4]; liver, 4 h pi + co-injection of 35 nmol DP2, read-out: Liver uptake, blocked): 0.963 ± 0.67 %ID/g
tissue uptake at 4 h [4, 20]: 1.37 ± 0.55 %ID/g
tissue uptake at 4 h ([4]; lung, 4 h pi + co-injection of 35 nmol DP2, read-out: Lung uptake, blocked): 0.47 ± 0.08 %ID/g
tissue uptake at 4 h [4, 22]: 0.07 ± 0.02 %ID/g
tissue uptake at 4 h ([4]; muscle, 4 h pi + co-injection of 35 nmol DP2, read-out: Muscle uptake, blocked): 0.07 ± 0.03 %ID/g
tissue uptake at 4 h [4, 24]: 5.73 ± 1.28 %ID/g
tissue uptake at 4 h ([4]; pancreas, 4 h pi + co-injection of 35 nmol DP2, read-out: Pancreas uptake, blocked): 0.16 ± 0.1 %ID/g
tissue uptake at 4 h [4, 25]: 0.46 ± 0.11 %ID/g
tissue uptake at 4 h ([4]; spleen, 4 h pi + co-injection of 35 nmol DP2, read-out: Spleen uptake, blocked): 0.5 ± 0.36 %ID/g
tissue uptake at 4 h [4, 27]: 1.96 ± 0.53 %ID/g
tissue uptake at 4 h ([4]; stomach, 4 h pi + co-injection of 35 nmol DP2, read-out: Stomach uptake, blocked): 1.29 ± 0.36 %ID/g
tissue uptake at 4 h [5, 28]: 0.19 ± 0.03 %ID/g
tissue uptake at 4 h [5, 29]: 0.23 ± 0.03 %ID/g
tissue uptake at 4 h [5, 10]: 0.15 ± 0.04 %ID/g
tissue uptake at 4 h [5, 12]: 2.39 ± 0.43 %ID/g
tissue uptake at 4 h [5, 30]: 1.24 ± 0.27 %ID/g
tissue uptake at 4 h [5, 15]: 23.4 ± 4.69 %ID/g
tissue uptake at 4 h [5, 17]: 1.02 ± 0.19 %ID/g
tissue uptake at 4 h [5, 19]: 0.68 ± 0.29 %ID/g
tissue uptake at 4 h [5, 21]: 0.06 ± 0.01 %ID/g
tissue uptake at 4 h [5, 23]: 3.33 ± 0.4 %ID/g
tissue uptake at 4 h [5, 31]: 0.82 ± 0.11 %ID/g
tissue uptake at 4 h [5, 26]: 3.41 ± 0.97 %ID/g
tissue uptake at 4 h [6, 28]: 0.1 ± 0.04 %ID/g
tissue uptake at 4 h [6, 10]: 0.15 ± 0.02 %ID/g
tissue uptake at 4 h [6, 12]: 1.54 ± 0.09 %ID/g
tissue uptake at 4 h [6, 30]: 0.41 ± 0.12 %ID/g
tissue uptake at 4 h [6, 15]: 24.1 ± 1.21 %ID/g
tissue uptake at 4 h [6, 17]: 1.1 ± 0.08 %ID/g
tissue uptake at 4 h ([6]; lung, 10 pmol, read-out: Lung uptake): 0.56 ± 0.28 %ID/g
tissue uptake at 4 h [6, 21]: 0.06 ± 0.01 %ID/g
tissue uptake at 4 h [6, 23]: 2.79 ± 0.4 %ID/g
tissue uptake at 4 h [6, 31]: 0.78 ± 0.07 %ID/g
tissue uptake at 4 h [6, 26]: 3.06 ± 0.73 %ID/g
tissue uptake at 1 h [7, 28]: 1.34 ± 0.21 %ID/g
tissue uptake at 1 h [7, 29]: 0.49 ± 0.12 %ID/g
tissue uptake at 1 h [7, 30]: 3.05 ± 0.51 %ID/g
tissue uptake at 1 h [7, 31]: 0.84 ± 0.21 %ID/g
SMILES: C[C@H](NC(=O)CN1CCN(CC(=O)O)CCN(CC(=O)O)CCN(CC(=O)O)CC1)C(=O)NCC(=O)N[C@H]1CSSC[C@@H](C(=O)O)NC(=O)[C@H](CO)NC(=O)[C@H]([C@@H](C)O)NC(=O)[C@H](Cc2ccccc2)NC(=O)[C@H]([C@@H](C)O)NC(=O)[C@H](CCCCN)NC(=O)[C@@H](Cc2c[nH]c3ccccc23)NC(=O)[C@H](Cc2ccccc2)NC(=O)[C@H](Cc2ccccc2)NC(=O)[C@H](CC(N)=O)NC(=O)[C@H](CCCCN)NC1=O [[^111In]AT2S, metal not drawn]
